Assay results reported in patent US20040122061A1, “Inhibitors of post-amadori advanced glycation end products” (BioStratum, Inc., priority 2002, published 2004).
Where two headings read alike, the source gives them in different places.

Columns and labels:
[1] = biological target: T1, bovine serum albumin (Bos taurus, UniProt P02769); assay: Compound binding to plasma albumin (ultrafiltration, free compound), BSA; type: in vitro ADME; conditions: BSA 40 mg/ml; for fraction unbound at 8 μg/ml: compound 8 μg/ml; for Kd: read-out: Computed (1:1) Kd
T1 construct: from tissue; host or cells: plasma / serum (from the name; preparation not described)
Description: (§1) This study was done to measure the binding of compounds of the present invention to plasma albumin. Such binding can result in longer plasma retention times and enhanced therapeutic efficacy for the compounds. The proteins tested were bovine serum albumin, bovine (BSA) at 40 mg/ml and rat albumin at ˜13 mg/ml.
(§2) Spectrophotmetry: Two mL of protein solution in 0.1M phosphate buffer saline (PBS) at pH 7.4 was titrated with compound in 0.2 M phosphate buffer at pH 7.4. The protein concentration was prepared to have absorbance less than 1 at the observation wavelength range (250-500), and the total volume change during titration was controlled below 2%. The compound-protein binding detection was based on the shift of spectrum.
Free compound measurement: One ml of compound and protein mixture was incubated at 37° C. for about 30 min and loaded into Centricon YM-10 (10,000 MW cut-off, for BSA) or Microcon YC-3 (3,000 MW cut-off). The samples were centrifuged in a fixed-angle rotor at 6,000 rpm for about 6-8 min (Centricon) or at 9,000 rpm for about 15 min (Microcon) to allow about 10-20% of the volume to filter through. Free compound passes through the membrane while the free and complexed protein remains in the sample reservoir. The concentration of free compound in the filtrate is assumed to be the same as in the sample above the membrane. A fixed amount of filtrate aliquot was diluted to 0.6 ml with PBS at pH 7.4 (PBS was prepared using 1 tablet from Sigma dissolved in 200 ml deionized H2O) and measured by UV absorbance. To quantify the percentage of free compound, the same compound at the same concentration in PBS solution, as standard, was prepared in parallel through the same process, or a calibration curve was generated through the same process. 1 ml of PBS solution (as blank) and 1 ml of protein solution (as control) also went through the same process and measurement.
Calculations: The method used to determine the percentage of free compound was either (a) % Free compound=(Asample−Acontrol)/Astandard×100, where, A is absorbance at selected wavelength; or (b) Obtaining free compound concentration of sample from calibration curve, and then divided by total concentration: Kd=[P][L]/[PL] (for 1:1 binding), using BSA MW=70,000.

[2] = system: conversion of Amadori compounds to post Amadori advanced glycation endproducts (bovine serum albumin and ribonuclease A glycated by ribose); assay: Interrupted glycation: inhibition of post-Amadori AGE formation; type: biochemical; conditions: interrupted glycation with ribose, 37° C., pH 7.5; read-out: IC50 for inhibiting the conversion of Amadori compounds to post Amadori advanced glycation endproducts
Description: The effect of [2,4′]Bipyridinyl-3′-ol, 5-Hydroxymethyl-4-(1H-imidazol-2-yl)-2-methyl-pyridin-3-ol, and 4-(1H-Imidazol-2-yl)-pyridin-3-ol on post-Amadori AGE formation during interrupted glycation of bovine serum albumin and ribonuclease A by ribose was determined in comparison to pyridoxamine. Modification with ribose was done at 37° C. in 0.2 M phosphate buffer of pH 7.5 containing 0.02% sodium azide. The solutions were kept in capped tubes and opened only to remove timed aliquots that were immediately frozen for later carrying out the various analyses. “Interrupted glycation” experiments were carried out by first incubating protein with the ribose at 37° C. for 8 or 24 h, followed by immediate and extensive dialysis against frequent cold buffer changes at 4° C. The samples were then re-incubated by quickly warming to 37° C. in the absence of external ribose. Aliquots were taken and frozen at various intervals for later analysis. (See U.S. Pat. No. 5,985,857)
The interrupted glycation method for following post-Amadori kinetics of AGE formation allows for the rapid quantitative study of “late” stages of the glycation reaction. Importantly, this method allows for inhibition studies that are free of pathways of AGE formation that arise from glycoxidative products of free sugar or Schiff base (Namiki pathway). The experiments were designed to determine the half-maximal inhibitory concentration of these compounds (“IC50 values”) for inhibiting the conversion of Amadori compounds to post Amadori advanced glycation endproducts.

[3] = biological target: T2, rat albumin (Rattus norvegicus, UniProt P02770); assay: Compound binding to plasma albumin (ultrafiltration, free compound), rat albumin; type: in vitro ADME; conditions: compound 10 μg/ml, rat albumin ~13 mg/ml
T2 construct: from tissue; host or cells: plasma (from 'plasma albumin'; preparation not described)
Description: as §1, §2
Free compound measurement: One ml of compound and protein mixture was incubated at 37° C. for about 30 min and loaded into Centricon YM-10 (10,000 MW cut-off, for BSA) or Microcon YC-3 (3,000 MW cut-off). […] A fixed amount of filtrate aliquot was diluted to 0.6 ml with PBS at pH 7.4 (PBS was prepared using 1 tablet from Sigma dissolved in 200 ml deionized H2O) and measured by UV absorbance. To quantify the percentage of free compound, the same compound at the same concentration in PBS solution, as standard, was prepared in parallel through the same process, or a calibration curve was generated through the same process. […]

[4] = system: streptozotocin (STZ)-diabetic rats; assay: Rat model of diabetic neuropathy (STZ-diabetic rats); type: in vivo; conditions: 50 mg/L in drinking water
Description: Our aim was to ascertain whether BST-4997 treatment could correct nerve dysfunction in streptozotocin (STZ)-diabetic rats. Animals (n=10) were made diabetic for 6 weeks (group D), following which they were treated for 2 weeks with BST-4997 (group DBST) given in the drinking water at a concentration of 50 mg/L. They were compared to control non-diabetic rats (groups C). Statistical significance is reported according to the legend: **, *** p<0.01, p<0.001 versus untreated controls; ### p<0.001 treatment effect versus untreated diabetics.
FIG. 13 provides a graphical representation of the effect of BST-4997 on restoring nerve conduction velocity (NCV) in the STZ rats. Motor NCV was tested between the sciatic notch and knee for the nerve branch to tibialis anterior muscle, as described in Cameron et al., Q. J. Exp. Physiol. 74: 917-926 (1989); and Cameron et al., Exp. Neurol. 92: 757-761 (1986). Saphenous sensory NCV was measured between the groin and ankle.
FIG. 14 provides a graphical representation of the effect of BST-4997 on restoring endoneurial perfusion in the STZ rats. Vascular blood flow, pressure, and conductance were measured.
FIG. 15 provides a graphical representation of the effect of BST-4997 on improving pain related measures in the STZ rats. Responses to tactile allodynia, pressure, and thermal stimuli were measured.

[5] = bovine, bovine serum albumin solution (40 mg/ml), pH 7.4, 37° C.
[6] = STZ rats diabetic 6 weeks, then 2 weeks treatment, FIG. 13
[7] = STZ rats, 2 weeks treatment, FIG. 14
[8] = STZ rats, 2 weeks treatment, FIG. 15

T1 sequence (P02769 25-607): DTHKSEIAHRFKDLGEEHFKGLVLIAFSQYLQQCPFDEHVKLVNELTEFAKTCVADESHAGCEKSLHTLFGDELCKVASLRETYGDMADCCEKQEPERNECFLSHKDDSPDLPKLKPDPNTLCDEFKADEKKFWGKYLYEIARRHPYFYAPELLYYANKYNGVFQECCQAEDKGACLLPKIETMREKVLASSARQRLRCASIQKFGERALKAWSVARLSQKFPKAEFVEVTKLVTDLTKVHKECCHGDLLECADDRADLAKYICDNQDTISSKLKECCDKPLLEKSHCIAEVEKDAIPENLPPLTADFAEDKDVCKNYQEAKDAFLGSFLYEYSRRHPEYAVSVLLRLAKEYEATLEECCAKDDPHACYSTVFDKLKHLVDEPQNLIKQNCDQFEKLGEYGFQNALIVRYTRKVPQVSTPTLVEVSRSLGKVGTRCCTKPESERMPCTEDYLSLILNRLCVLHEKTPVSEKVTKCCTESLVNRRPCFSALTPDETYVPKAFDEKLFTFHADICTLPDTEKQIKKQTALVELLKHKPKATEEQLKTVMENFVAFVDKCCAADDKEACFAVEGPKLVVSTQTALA
T2 sequence (P02770 25-608): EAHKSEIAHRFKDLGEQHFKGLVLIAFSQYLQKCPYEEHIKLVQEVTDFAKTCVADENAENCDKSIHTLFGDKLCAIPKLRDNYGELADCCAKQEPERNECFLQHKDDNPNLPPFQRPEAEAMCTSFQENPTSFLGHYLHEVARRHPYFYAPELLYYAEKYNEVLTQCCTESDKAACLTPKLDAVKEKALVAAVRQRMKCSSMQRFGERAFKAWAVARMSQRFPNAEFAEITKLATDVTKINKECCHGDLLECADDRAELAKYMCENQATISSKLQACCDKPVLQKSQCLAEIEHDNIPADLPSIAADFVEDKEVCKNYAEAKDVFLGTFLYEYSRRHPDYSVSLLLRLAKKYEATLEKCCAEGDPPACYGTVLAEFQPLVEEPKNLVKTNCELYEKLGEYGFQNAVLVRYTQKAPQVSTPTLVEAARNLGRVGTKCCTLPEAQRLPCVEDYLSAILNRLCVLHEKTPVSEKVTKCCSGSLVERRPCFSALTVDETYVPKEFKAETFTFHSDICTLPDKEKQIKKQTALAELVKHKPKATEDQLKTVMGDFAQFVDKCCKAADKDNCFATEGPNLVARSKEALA

Oc1cnccc1-c1ccccn1 [BST4944, [2,4′]Bipyridinyl-3′-ol]
fraction unbound at 8 μg/ml [1, 5]: 0.34
IC50 [2]: 2000 µM

Oc1cnccc1-c1ncc[nH]1 [BST4996, 4-(1H-Imidazol-2-yl)-pyridin-3-ol]
fraction unbound at 8 μg/ml [1, 5]: 0.53
IC50 [2]: 200 to 300 µM

Cc1ncc(CO)c(-c2ncc[nH]2)c1O [BST4997, 5-Hydroxymethyl-4-(1H-imidazol-2-yl)-2-methyl-pyridin-3-ol]
Kd ([3]; read-out: Computed (1:1) Kd): 350 µM
fraction unbound at 10 μg/ml ([3]; rat albumin solution (~13 mg/ml), pH 7.4, 37° C., read-out: % Free BST4997): 0.67
fraction unbound at 5 μg/ml ([1]; bovine, bovine serum albumin solution (40 mg/ml), compound 5 μg/ml, pH 7.4, 37° C., read-out: % Free BST4997): 0.31
fraction unbound at 10 μg/ml ([1]; bovine, bovine serum albumin solution (40 mg/ml), compound 10 μg/ml, pH 7.4, 37° C., read-out: % Free BST4997): 0.3
fraction unbound at 20 μg/ml ([1]; bovine, bovine serum albumin solution (40 mg/ml), compound 20 μg/ml, pH 7.4, 37° C., read-out: % Free BST4997): 0.38
Kd ([1]; compound 5 μg/ml): 260 µM
Kd ([1]; compound 10 μg/ml): 240 µM
Kd ([1]; compound 20 μg/ml): 320 µM
IC50 [2]: 200 to 300 µM
diabetes-associated defect in motor nerve conduction velocity (NCV) [4, 6]: dramatically reduced
diabetes-associated defect in sensory nerve conduction velocity (NCV) [4, 6]: dramatically reduced
correction of nerve dysfunction ([4]; STZ rats, 2 weeks treatment): effective in correcting nerve dysfunction
diabetes-associated defect in endoneurial blood flow [4, 7]: dramatically reduced
diabetes-associated defect in endoneurial vascular conductance [4, 7]: dramatically reduced
diabetes-associated defect in tactile allodynia [4, 8]: dramatically reduced
diabetes-associated defect in thermal hyperalgesia (latency for foot withdrawal from a noxious heat stimulus) [4, 8]: dramatically reduced

Cc1ncc(CO)c(CN)c1O [pyridoxamine, reference compound]
IC50 [2]: ~3000 µM
